This assay concerns RpGS1. The settings on record: read-out: RpGS1; 0.5-15 mM sodium glutamate; ATP, hydroxylamine, Mg2+ in solution B pH 7.4; 37 C; called purified in the discussion, methods describe protein released by ultrasonication.

With `N[C@@H](CCC(=O)O)C(=O)O` [sodium glutamate], the Km worked out at 580 µM.

The record behind these values is article PMC12216525, “Characterization of glutamine synthetase involved in the fecundity of Rhopalosiphum padi” (Scientific Reports, 2025).
